Columns and labels:
[1] = Antihypertensive evaluation (AHP3), aortic blood pressure in conscious rats; type: in vivo; settings: conscious rat
Excerpt: ANTIHYPERTENSIVE EVALUATION (AHP3)
This test procedure is described in the following paragraphs.
A Method for the Direct Monitoring of Aortic Blood
Pressure and Heart Rate from Conscious Rats
The continuous monitoring of pulsatile blood pressure (BP) from unrestrained conscious rats surgically equipped with polyethylene cannulas was accomplished by means of a computer assisted data capture scheme (CADCS). The basic elements of the methodology are the cannulation procedure and the CADCS.
Rats were anesthetized with Telazol (1:1 tiletamine HCl and zolazepam HCl); 20-40 mg/kg IM and the descending aorta exposed via a midline incision. Cannulas fabricated from polyethylene tubing were inserted into the aorta via an undersized puncture hole below the renal arteries. The puncture hole was made by a 23 G disposable needle with a section of the aorta clamped off above and below the puncture site. The cannulas, consisting of a PE100 (0.86 mm ID) body and a PE50 (0.58 mm ID) tip, were attached to a trocar, inserted through the psoas muscle, and passed subcutaneously along the midline of the back and externalized between the ears. The cannulas were anchored to the psoas muscle and between the scalulae (3-0 green braided suture). The midline incision was closed in two steps (muscle first, skin second) using continuous over-and-over sutures (4-0 chronic). Each rat was then given penicillin 30,000 units subcutaneously (Penicillin G Procaine Sterile Suspension).
The rats were fitted with a harness-spring-swivel assembly designed to protect the cannula and to provide the rat relative freedom of movement. The harnesses were fabricated from nylon hook and loop tape cemented to a metal plate to which spring wires (18-8 stainless steel) were attached to brass swivels. Each polyethylene cannula was channeled through a spring and connected through a swivel to a pressure transducer (Model P23Gb; Statham Instruments; Hato Rey, Puerto Rico) and an infusion pump (Sage model 234-7; Orion Research, Cambridge MA) by means of PE100 tubing. While on test, each rat received a continuous slow infusion of heparinized saline solution (approximately 400 μl or 40 units of heparin per 24 hours period) to prevent clot formation. Additional "flushes" of the cannula with heparinized saline were carried out when the aortic pulse pressure (systolic minus diastolic) was less than 25 mm Hg.
The pulsatile blood pressure and heart rate of each of 32 rats was monitored every minute by means of two in-laboratory microcomputers communicating directly with a data concentrator computer. The data were first stored on the data concentrator disk and then transferred to a magnetic tape for analysis and report generation by the main research computer. The overall scheme involved modulating the primary signal from the pressure transducer, generating the primary data set of the one-minute values for systolic, diastolic, and mean blood pressures and heart rate by the in-lab microcomputer and the storage, analysis, and report generation by the main research computer.
The transducers were connected to analog signal conditioning modules. The modules provided a regulated excitation voltage for the transducers, amplification as required to interface the microprocessors and an active low pass filter to compensate for the pressure wave form distortion produced by the flexible, fluid filled, narrow cannula. The distortion was 22-26 Hz and this provided a reliable estimate of both systolic and diastolic blood pressure.
The microcomputers (one for each of two groups of 16 rats) were connected to the input components through the module interface units, an analog-to-digital converter for the pressure wave form signal and the digital inputs for the dose and event marker switches. The microcomputer controlled the sequential acquisition of data from the modular interface units through an internal synchronous time-of-day clock/time base generator. […]

[2] = target: T1, adenosine A1 receptor (Rattus norvegicus, UniProt P25099); assay: Adenosine Receptor Binding--A1 Receptor Affinity (RBA1), [3H]-CHA, whole brain membranes; settings: read-out: RBA-1 IC50
T1 construct: Whole brain minus cerebellum and brainstem from male Long-Evans rats; from tissue; host or cells: whole brain minus cerebellum and brainstem, male Long-Evans rats
T1 sequence (P25099 1-326): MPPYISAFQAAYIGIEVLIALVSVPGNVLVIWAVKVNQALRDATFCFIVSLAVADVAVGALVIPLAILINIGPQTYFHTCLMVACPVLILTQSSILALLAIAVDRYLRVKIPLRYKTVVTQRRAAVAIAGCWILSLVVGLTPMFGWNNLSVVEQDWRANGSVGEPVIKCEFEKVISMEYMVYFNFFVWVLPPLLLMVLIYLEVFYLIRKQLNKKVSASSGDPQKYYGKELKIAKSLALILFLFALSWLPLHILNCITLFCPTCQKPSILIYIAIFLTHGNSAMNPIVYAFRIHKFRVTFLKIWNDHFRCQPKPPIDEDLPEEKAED
Experimental: Adenosine Receptor Binding--A1 Receptor Affinity (RBA1 )
Whole brain minus cerebellum and brainstem from male Long-Evans rats (150-200 g) was homogenized in 30 volumes of ice-cold 0.05M Tris-HCl buffer pH 7.7 using a Brinkman Polytron PT-10, (setting number 6 for 20 seconds) and centrifuged for ten minutes at 20,000 xg (Sorvall RC-2), 4° C. The supernatant was discarded, and the pellet was resuspended and centrifuged as before. The pellet was resuspended in 20 ml Tris-HCl buffer containing two International Units/ml of adenosine deaminase (Sigma type III from calf intestinal mucosa), incubated at 37° C. for 30 minutes, then subsequently at 0° C. for ten minutes. The homogenate was again centrifuged, and the final pellet was resuspended in ice-cold 0.05M Tris-HCl buffer pH 7.7 to a concentration of 20 mg/ml original wet tissue weight and used immediately.
Tissue homogenate (10 mg/ml) was incubated in 0.05M Tris-HCl buffer pH 7.7 containing 1.0 nM [^3 H]--N^6 -cyclohexyladenosine ([^3 H]--CHA) with or without test agents in triplicate for one hour at 25° C. Incubation volume was 2 ml. Unbound [^3 H]--CHA was separated by rapid filtration under reduced pressure through Whatman glass fiber (GF/B) filters. The filters were rinsed three times with 5 ml of ice cold 0.05M Tris-HCl buffer pH 7.7. The radio-labeled ligand retained on the filter was measured by liquid scintillation spectrophotometry after shaking the filters for one hour or longer on a mechanical shaker in 10 ml of Beckman Ready-Solv HP scintillation cocktail.
Nonspecific binding was defined as the binding which occurred in the presence of 1 mM theophylline. The concentration of test agent which inhibited 50% of the specific binding (IC50) was determined by nonlinear computer curve fit. The Scatchard plot was calculated by linear regression of the line obtained by plotting the amount of radioligand bound (pmoles/gram of tissue) [formula] Since the amount of radioligand bound was a small fraction of the total amount added, free radioligand was defined as the concentration of (nM) of radioligand added to the incubation mixture. The Hill coefficient was calculated by linear regression of the line obtained by plotting the log of the bound radioligand vs the log of the [formula] The maximal number of binding sites (Bmax) was calculated from the Scatchard plot.

## OC[C@H]1O[C@@H](n2cnc3c(NCC4(c5ccccc5)CC4)ncnc32)[C@H](O)[C@@H]1O [Example 1, N6-((1-Phenylcyclopropyl)methyl)adenosine]
[1]; 1 mg/kg
  Maximum BP ↓ MAP: 13%
[1]; 3 mg/kg
  Maximum BP ↓ MAP: 23%
[1]; 10 mg/kg
  Maximum BP ↓ MAP: 23%
[2]
  IC50: 28 nM

## OC[C@H]1O[C@@H](n2cnc3c(NCC4(c5cccc(Cl)c5)CC4)ncnc32)[C@H](O)[C@@H]1O [Example 2, N6-((1-(3-Chlorophenyl)cyclopropyl)methyl)adenosine]
[2]
  IC50: 32 nM

## OC[C@H]1O[C@@H](n2cnc3c(NCC4(c5cccs5)CC4)ncnc32)[C@H](O)[C@@H]1O [Example 3, N6-((1-Thien-2-ylcyclopropyl)methyl)adenosine]
[1]; 3 mg/kg
  Maximum BP ↓ MAP: 43%
[2]
  IC50: 7.3 nM

## O[C@@H]1[C@H](O)[C@@H](CCl)O[C@H]1n1cnc2c(NCC3(c4ccccc4)CC3)ncnc21 [Example 5, 5'-Deoxy-5'-chloro-N6-((1-phenylcyclopropyl)methyl)adenosine]
[2]
  IC50: 52 nM

## O[C@@H]1[C@H](O)[C@@H](CCl)O[C@H]1n1cnc2c(NCC3(c4cccs4)CC3)ncnc21 [Example 6, 5'-Chloro-5'-deoxy-N6-((1-thien-2-ylcyclopropyl)methyl)adenosine]
[2]
  IC50: 18 nM

## OC[C@H]1O[C@@H](n2cnc3c(NCC4(c5ccccc5)CCC4)ncnc32)[C@H](O)[C@@H]1O [Example 7, N6-((1-Phenylcyclobutyl)methyl)adenosine]
[1]; 10 mg/kg
  Maximum BP ↓ MAP: 32%
[2]
  IC50: 16 nM

## OC[C@H]1O[C@@H](n2cnc3c(NCC4(c5cccc(Cl)c5)CCC4)ncnc32)[C@H](O)[C@@H]1O [Example 8, N6-((1-(3-Chlorophenyl)cyclobutyl)methyl)adenosine]
[2]
  IC50: 31 nM

## OC[C@H]1O[C@@H](n2cnc3c(NCC4(c5cccs5)CCC4)ncnc32)[C@H](O)[C@@H]1O [Example 9, N6-((1-Thien-2-ylcyclobutyl)methyl)adenosine]
[1]; 3 mg/kg
  Maximum BP ↓ MAP: 10%
[2]
  IC50: 5.6 nM

## OC[C@H]1O[C@@H](n2cnc3c(NCC4(c5ccccc5)CCCC4)ncnc32)[C@H](O)[C@@H]1O [Example 10, N6-((1-Phenylcyclopentyl)methyl)adenosine]
[1]; 10 mg/kg
  Maximum BP ↓ MAP: 10%
[2]
  IC50: 110 nM

## OC[C@H]1O[C@@H](n2cnc3c(NCC4(c5ccccc5)CCCCC4)ncnc32)[C@H](O)[C@@H]1O [Example 11, N6-((1-Phenylcyclohexyl)methyl)adenosine]
[1]; 10 mg/kg
  Maximum BP ↓ MAP: 5%
[2]
  IC50: 410 nM

## OC[C@H]1O[C@@H](n2cnc3c(NCC4(c5ccc(Cl)cc5)CC4)ncnc32)[C@H](O)[C@@H]1O [Example 12, N6-((1-(4-Chlorophenyl)cyclopropyl)methyl)adenosine]
[1]; 10 mg/kg
  Maximum BP ↓ MAP: 23%
[2]
  IC50: 70 nM
